In patent publication US10189807B2, “Tetrahydrothiophene-based GABA aminotransferase inactivators” (Northwestern University, priority 2015, dated 2019):
Structures can show the parent of a compound that is named as a salt. Where two headings read alike, the source gives them in different places.

What was measured:
GABA-AT [1] = target: T1, GABA-AT (Sus scrofa (Pig), UniProt P80147); assay: Inhibition of GABA-AT, coupled assay with SSDH; assay type: biochemical
Experimental: (§1) GABA-AT was isolated and purified from pig brain by a published procedure.
Inhibition constants were determined by monitoring GABA-AT activity in the presence of 0-50 mM concentrations of synthesized analogues using a coupled assay with the enzyme succinic semialdehyde dehydrogenase (SSDH). The assay solution consisted of 10 mM GABA, 5 mM α ketoglutarate, 1 mM NADP^+, 5 mM β-mercaptoethanol, and excess SSDH in 50 mM potassium pyrophosphate buffer, pH 8.5. Enzyme activity was determined by observing the change in absorbance at 340 nm at 25° C. IC50 values were obtained using non-linear regression in GraphPad Prism5 software. Subsequent Ki values were determined using the Cheng-Prusoff relationship. (Yung-Chi, C.; Prusoff, W. H. Biochem. Pharmacol. 1973, 22, 3099-3108.)

[2] = system: aspartate aminotransferase; conditions: off-target enzyme; cited from earlier work
GABA-AT [3] = conditions: prior art; cited from earlier work
CYP2C8 = CYP2C8 (Homo sapiens (Human), UniProt P10632); assay: Inhibition of microsomal cytochromes P450: CYP2C8; assay type: in vitro ADME; conditions: 10 μM, HLM, paclitaxel substrate, 10 min at 37° C.
Chain of CYP2C8 (P10632 whole entry): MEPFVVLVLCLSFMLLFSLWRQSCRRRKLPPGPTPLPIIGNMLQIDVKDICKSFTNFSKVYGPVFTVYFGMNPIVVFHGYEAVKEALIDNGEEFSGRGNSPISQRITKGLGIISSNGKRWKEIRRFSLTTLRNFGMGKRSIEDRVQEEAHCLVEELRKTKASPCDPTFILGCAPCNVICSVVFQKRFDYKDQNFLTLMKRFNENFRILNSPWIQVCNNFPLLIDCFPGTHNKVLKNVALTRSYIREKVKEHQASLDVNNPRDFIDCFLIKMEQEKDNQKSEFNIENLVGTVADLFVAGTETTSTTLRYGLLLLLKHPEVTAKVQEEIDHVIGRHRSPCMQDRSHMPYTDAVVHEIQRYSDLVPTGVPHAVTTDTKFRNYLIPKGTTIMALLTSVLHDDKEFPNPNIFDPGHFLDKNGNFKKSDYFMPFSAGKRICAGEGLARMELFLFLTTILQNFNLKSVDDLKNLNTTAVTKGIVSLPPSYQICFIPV
Experimental: (§2) The experiments were performed by Eurofins Panlabs (Redmond, Wash. 98052, USA). CYP1A inhibition (HLM, phenacetin substrate), CYP2B6 inhibition (HLM, bupropion substrate), CYP2C8 inhibition (HLM, paclitaxel substrate), CYP2C9 inhibition (HLM, diclofenac substrate), CYP2C19 inhibition (HLM, omeprazole substrate), CYP2D6 inhibition (HLM, dextromethorphan substrate), and CYP3A inhibition (HLM, midazolam and testosterone substrates) were tested. The test concentration was 10 μM. The incubation time was 10 min at 37° C. The detection method was by HPLC-MS/MS. The experiments were duplicated, and the % inhibition of the control values was averaged (FIG. 10).

[4] = Metabolic stability in human liver microsomes; assay type: in vitro ADME; conditions: 0.1 μM, over 60 minutes at 37° C., LC-MS/MS
Experimental: The experiments were performed by Eurofins Panlabs (Redmond, Wash. 98052, USA). The test concentration of 17 was 0.1 μM. […] The detection method was by LC-MS/MS. Imipramine, propranolol, terfenadine, and verapamil were run in similar condition as controls.

CYP2D6 = CYP2D6 (Homo sapiens (Human), UniProt P10635); assay: Inhibition of microsomal cytochromes P450: CYP2D6; assay type: in vitro ADME; conditions: 10 μM, HLM, dextromethorphan substrate, 10 min at 37° C.
Chain of CYP2D6 (P10635 whole entry): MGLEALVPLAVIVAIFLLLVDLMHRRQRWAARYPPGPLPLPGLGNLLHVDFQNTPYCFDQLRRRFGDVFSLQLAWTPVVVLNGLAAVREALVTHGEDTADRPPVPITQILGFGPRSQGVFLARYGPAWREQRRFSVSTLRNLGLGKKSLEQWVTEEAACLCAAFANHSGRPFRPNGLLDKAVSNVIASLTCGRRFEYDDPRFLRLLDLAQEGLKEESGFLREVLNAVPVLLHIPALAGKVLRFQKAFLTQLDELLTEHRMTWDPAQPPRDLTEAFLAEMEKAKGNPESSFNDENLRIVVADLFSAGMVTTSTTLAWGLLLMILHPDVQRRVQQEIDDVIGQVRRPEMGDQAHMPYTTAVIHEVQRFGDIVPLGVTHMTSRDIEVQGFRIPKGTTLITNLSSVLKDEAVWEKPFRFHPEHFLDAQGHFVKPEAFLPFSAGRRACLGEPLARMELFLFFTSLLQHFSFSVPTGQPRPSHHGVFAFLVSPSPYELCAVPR
Experimental: as §2

GABA-AT [5] = target: T1, GABA-AT; assay: Time-dependent inhibition (inactivation) of GABA-AT, Kitz and Wilson replot; assay type: biochemical; conditions: preliminary in vitro results
Experimental: as §1
GABA-AT (17.5 μL) was incubated in the presence of varying concentrations of each compound (70 μL final volume) at 25° C. in 50 mM potassium pyrophosphate buffer solution, pH 6.5, containing 5 mM α-ketoglutarate and 1 mM β-mercaptoethanol. […] The relative enzyme activity was determined by normalizing the rate of increasing absorbance at 340 nm to a control. A Kitz and Wilson replot was used to determine the kinetic constants KI and kinact.

CYP2B6 = CYP2B6 (Homo sapiens (Human), UniProt P20813); assay: Inhibition of microsomal cytochromes P450: CYP2B6; assay type: in vitro ADME; conditions: 10 μM, HLM, bupropion substrate, 10 min at 37° C.
Chain of CYP2B6 (P20813 whole entry): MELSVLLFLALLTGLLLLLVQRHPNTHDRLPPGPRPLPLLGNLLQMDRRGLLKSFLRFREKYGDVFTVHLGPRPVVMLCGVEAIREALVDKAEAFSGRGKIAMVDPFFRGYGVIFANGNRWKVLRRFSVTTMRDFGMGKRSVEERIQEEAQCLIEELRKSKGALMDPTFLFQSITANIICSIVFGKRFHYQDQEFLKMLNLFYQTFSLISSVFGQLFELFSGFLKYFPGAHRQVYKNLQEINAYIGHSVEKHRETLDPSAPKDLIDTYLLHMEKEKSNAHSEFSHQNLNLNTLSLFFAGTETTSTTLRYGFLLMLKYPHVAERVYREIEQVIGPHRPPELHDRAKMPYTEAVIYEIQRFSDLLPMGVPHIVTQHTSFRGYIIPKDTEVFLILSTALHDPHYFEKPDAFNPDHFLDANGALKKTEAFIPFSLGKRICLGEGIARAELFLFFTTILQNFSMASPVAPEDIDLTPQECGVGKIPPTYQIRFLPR
Experimental: as §2

CYP1A = CYP1A (Homo sapiens (Human), UniProt P05177); assay: Inhibition of microsomal cytochromes P450: CYP1A; assay type: in vitro ADME; conditions: 10 μM, HLM, phenacetin substrate, 10 min at 37° C.
Chain of CYP1A (P05177 whole entry): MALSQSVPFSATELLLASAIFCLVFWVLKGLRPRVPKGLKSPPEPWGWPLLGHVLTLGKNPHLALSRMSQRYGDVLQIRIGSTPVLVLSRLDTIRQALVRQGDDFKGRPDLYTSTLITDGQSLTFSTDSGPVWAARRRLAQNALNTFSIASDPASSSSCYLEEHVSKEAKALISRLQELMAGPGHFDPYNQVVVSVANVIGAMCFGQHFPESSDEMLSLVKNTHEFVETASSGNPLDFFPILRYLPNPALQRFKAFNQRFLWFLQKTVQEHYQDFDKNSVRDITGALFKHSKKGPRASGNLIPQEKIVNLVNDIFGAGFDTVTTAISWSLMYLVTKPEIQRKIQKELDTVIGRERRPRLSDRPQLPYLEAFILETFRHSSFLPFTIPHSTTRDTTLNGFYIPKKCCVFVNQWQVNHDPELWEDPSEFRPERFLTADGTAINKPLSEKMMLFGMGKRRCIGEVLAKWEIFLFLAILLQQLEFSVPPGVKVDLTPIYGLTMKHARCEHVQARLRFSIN
Experimental: as §2

CYP2C9 = CYP2C9 (Homo sapiens (Human), UniProt P11712); assay: Inhibition of microsomal cytochromes P450: CYP2C9; assay type: in vitro ADME; conditions: 10 μM, HLM, diclofenac substrate, 10 min at 37° C.
Chain of CYP2C9 (P11712 whole entry): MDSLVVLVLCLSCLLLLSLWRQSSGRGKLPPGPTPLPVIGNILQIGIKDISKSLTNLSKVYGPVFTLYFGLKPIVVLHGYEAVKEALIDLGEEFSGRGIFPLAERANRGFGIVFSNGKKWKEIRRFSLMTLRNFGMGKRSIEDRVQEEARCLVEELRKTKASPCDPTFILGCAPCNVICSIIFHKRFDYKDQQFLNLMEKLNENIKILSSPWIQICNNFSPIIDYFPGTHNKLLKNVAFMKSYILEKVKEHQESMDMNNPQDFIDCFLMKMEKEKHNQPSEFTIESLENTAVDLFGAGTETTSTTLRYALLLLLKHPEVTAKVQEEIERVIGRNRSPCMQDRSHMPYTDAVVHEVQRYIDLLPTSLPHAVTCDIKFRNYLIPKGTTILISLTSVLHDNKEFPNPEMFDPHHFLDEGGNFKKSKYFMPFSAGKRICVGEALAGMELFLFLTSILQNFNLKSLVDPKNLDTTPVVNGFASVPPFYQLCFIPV
Experimental: as §2

CYP2C19 = CYP2C19 (Homo sapiens (Human), UniProt P33261); assay: Inhibition of microsomal cytochromes P450: CYP2C19; assay type: in vitro ADME; conditions: 10 μM, HLM, omeprazole substrate, 10 min at 37° C.
Chain of CYP2C19 (P33261 whole entry): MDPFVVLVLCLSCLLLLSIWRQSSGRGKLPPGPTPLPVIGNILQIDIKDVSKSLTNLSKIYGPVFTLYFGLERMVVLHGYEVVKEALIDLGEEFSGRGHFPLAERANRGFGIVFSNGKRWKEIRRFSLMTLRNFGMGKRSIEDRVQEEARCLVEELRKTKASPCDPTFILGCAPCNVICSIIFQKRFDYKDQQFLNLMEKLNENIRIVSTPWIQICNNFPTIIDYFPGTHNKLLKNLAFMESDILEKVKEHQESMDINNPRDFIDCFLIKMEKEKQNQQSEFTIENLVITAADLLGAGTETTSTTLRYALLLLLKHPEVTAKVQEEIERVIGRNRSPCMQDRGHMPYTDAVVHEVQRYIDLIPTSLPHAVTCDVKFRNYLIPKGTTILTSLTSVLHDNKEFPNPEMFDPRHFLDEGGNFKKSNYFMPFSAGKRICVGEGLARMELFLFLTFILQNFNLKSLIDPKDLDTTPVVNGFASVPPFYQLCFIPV
Experimental: as §2

CYP3A = assay: Inhibition of microsomal cytochromes P450: CYP3A; assay type: in vitro ADME, human; conditions: 10 μM, HLM, midazolam and testosterone substrates, 10 min at 37° C.
Experimental: as §2

hERG channel = hERG channel (Homo sapiens (Human), UniProt Q12809); assay: Inhibition of the hERG channel, automated whole-cell patch clamp; assay type: cell-based; conditions: hERG CHO-K1 cell line; 0.1, 1 and 10 μM; 5 min at room temperature
Chain of hERG channel (Q12809 whole entry): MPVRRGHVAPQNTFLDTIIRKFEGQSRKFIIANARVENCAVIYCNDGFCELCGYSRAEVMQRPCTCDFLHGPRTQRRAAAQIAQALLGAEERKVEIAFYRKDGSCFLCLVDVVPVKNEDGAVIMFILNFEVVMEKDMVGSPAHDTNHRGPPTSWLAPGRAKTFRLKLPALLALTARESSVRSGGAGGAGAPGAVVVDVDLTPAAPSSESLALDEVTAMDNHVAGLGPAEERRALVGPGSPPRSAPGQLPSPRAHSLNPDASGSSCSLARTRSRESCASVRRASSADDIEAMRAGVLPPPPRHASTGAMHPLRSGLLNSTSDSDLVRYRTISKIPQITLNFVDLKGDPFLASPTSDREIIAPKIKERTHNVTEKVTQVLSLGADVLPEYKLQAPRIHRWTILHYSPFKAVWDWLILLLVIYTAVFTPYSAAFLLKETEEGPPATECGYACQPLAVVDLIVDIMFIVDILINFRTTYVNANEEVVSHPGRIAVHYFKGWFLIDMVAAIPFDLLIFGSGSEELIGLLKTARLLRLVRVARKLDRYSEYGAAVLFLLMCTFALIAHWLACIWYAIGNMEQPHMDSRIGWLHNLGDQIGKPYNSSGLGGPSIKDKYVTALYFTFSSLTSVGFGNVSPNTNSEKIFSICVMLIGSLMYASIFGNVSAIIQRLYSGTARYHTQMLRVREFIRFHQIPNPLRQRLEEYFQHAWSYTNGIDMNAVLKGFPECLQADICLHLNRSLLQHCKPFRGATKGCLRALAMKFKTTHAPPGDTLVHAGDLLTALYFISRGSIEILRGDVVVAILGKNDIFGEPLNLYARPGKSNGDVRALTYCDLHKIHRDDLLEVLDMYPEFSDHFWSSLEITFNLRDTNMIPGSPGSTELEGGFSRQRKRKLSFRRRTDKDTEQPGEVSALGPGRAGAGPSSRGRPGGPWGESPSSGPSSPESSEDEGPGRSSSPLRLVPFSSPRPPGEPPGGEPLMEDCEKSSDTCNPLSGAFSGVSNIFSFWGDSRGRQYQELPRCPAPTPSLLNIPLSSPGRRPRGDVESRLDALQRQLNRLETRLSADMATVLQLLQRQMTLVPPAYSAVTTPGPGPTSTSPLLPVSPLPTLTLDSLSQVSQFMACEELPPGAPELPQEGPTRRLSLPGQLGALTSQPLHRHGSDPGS
Experimental: The experiments were performed by Eurofins Panlabs (Redmond, Wash. 98052, USA). hERG CHO-K1 cell line was used. The test concentrations were 0.1 μM, 1 μM, and 10 μM. The incubation time was 5 min at room temperature, cumulatively. The detection method used an automated whole-cell patch clamp. The experiments were duplicated, and the % inhibition of the tail current was averaged (FIG. 9).

Plasma protein binding = assay type: in vitro ADME
infantile spasms = conditions: multiple-hit rat model of infantile spasms; cited from earlier work
[6] = competitive inhibition, read-out: Ki (competitive inhibitor of GABA-AT)

T1 sequence (P80147 29-500 limits assumed): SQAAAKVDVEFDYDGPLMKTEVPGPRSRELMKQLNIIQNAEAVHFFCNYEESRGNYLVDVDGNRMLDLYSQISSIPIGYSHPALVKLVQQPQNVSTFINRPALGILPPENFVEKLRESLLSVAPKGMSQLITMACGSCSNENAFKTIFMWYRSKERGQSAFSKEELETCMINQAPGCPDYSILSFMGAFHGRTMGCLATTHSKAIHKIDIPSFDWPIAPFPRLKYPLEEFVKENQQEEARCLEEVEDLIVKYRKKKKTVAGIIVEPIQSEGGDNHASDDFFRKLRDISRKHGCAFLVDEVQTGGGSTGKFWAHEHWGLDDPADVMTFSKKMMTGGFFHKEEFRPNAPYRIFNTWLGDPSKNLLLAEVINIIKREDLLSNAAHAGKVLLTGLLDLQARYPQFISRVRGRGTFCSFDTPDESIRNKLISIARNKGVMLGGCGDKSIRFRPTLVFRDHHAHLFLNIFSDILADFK

Compound: N[C@H]1CC(C(=O)O)S(=O)(=O)C1 (mixture of isomers) [Compound 19, (4S)-4-Aminotetrahydrothiophene-2-carboxylic acid 1,1-dioxide hydrochloride]
- Ki (GABA-AT [1]; read-out: Ki (reversible inhibition)): 3200 ± 700 µM

Compound: N[C@H]1C=C(C(=O)O)SC1 [(S)-4-Amino-4,5-dihydro-2-thiophenecarboxylic acid]
- Inactivation or inhibition of aspartate aminotransferase [2]: inactivator
- Potency/inactivation of GABA-AT (in words) (GABA-AT [3]): known inactivator

Compound: Cl.N[C@@H]1CS[C@H](C(=O)O)C1 [Compound 17, (2S,4S)-4-Aminotetrahydrothiophene-2-carboxylic acid hydrochloride]
- CYP2C8 inhibition (CYP2C8): did not inhibit or induce
- metabolized in HLM [4]: less than 20%
- CYP2D6 inhibition (CYP2D6): did not inhibit or induce
- Inactivation of GABA-AT (in words) (GABA-AT [5]): potent inactivators
- CYP2B6 inhibition (CYP2B6): did not inhibit or induce
- CYP1A inhibition (CYP1A): did not inhibit or induce
- CYP2C9 inhibition (CYP2C9): did not inhibit or induce
- CYP2C19 inhibition (CYP2C19): did not inhibit or induce
- CYP3A inhibition (CYP3A): did not inhibit or induce
- Inhibition of the hERG channel (hERG channel): did not inhibit
- fraction unbound (Plasma protein binding): 0.74

Compound: Cl.N[C@@H]1CS[C@@H](C(=O)O)C1 [Compound 18, (2R,4S)-4-Aminotetrahydrothiophene-2-carboxylic acid hydrochloride]
- Inactivation of GABA-AT (in words) (GABA-AT [5]): potent inactivators

Compound: N[C@@H]1CC(C(=O)O)S(=O)(=O)C1 (stereo partly drawn) [Compound 22]
- Ki (GABA-AT [1]; pH 8.5, 25° C., from IC50 by Cheng-Prusoff, read-out: Ki (reversible inhibition)): 7500 ± 700 µM

Compound: N[C@@H]1CC[C@H](C(=O)O)C1 [Compound 39, (1S,3R)-3-aminocyclopentane-1-carboxylic acid]
- Inactivation of GABA-AT (in words) (GABA-AT [5]): not an inactivator
- Ki (GABA-AT [1]; [6]): 870 µM

Compound: N[C@@H]1CN[C@H](C(=O)O)C1 [Compound 41, (2S,4S)-4-aminopyrrolidine-2-carboxylic acid]
- Ki (GABA-AT [1]; [6]): 1300 µM

Compound: C=CC(N)CCC(=O)O (stereo not drawn) [vigabatrin]
- Duration of effective spasms suppression (infantile spasms): 1 days

Compound: mixture of (2S,4S)-4-aminotetrahydrofuran-2-carboxylic acid (40) and (2R,4R)-4-aminotetrahydrofuran-2-carboxylic acid (51) [mixture of enantiomers 40 and 51]
- Ki (GABA-AT [1]; [6]): 430 µM
